Laboratory results: paper PMC4633044, “Quorum Sensing Peptides Selectively Penetrate the Blood-Brain Barrier” (PLoS ONE, 2015)

Assays:
[1] = tested on: mouse brain (blood-brain barrier); conditions: in vivo; for Kin / Kin (text): iv
[2] = tested on: mouse brain capillaries / parenchyma; conditions: in vivo, iv
[3] = tested on: mouse brain (blood-brain barrier); conditions: in vivo
[4] = 0, 30, 120 min
[5] = mouse, in vivo, iv
[6] = tested on: mouse brain (blood-brain barrier); conditions: general value for the positive control; cited from earlier work
Description: To evaluate these transport results, we compared them with the net clearances of oth ...

Substance	Brain distribution volume, Vg [1] [µL/g]	Kin [1] [µL/g/min]	Kin (text) [1]	Capillary fraction [2] [%]	Capillary fraction, first animal (Fig 3) [2] [%]	Capillary fraction, second animal (Fig 3) [2] [%]	Parenchyma fraction, first animal (Fig 3) [2] [%]	Parenchyma fraction, second animal (Fig 3) [2] [%]	Parenchymal fraction [2] [%]	kout [3] [min⁻¹]	kout (text) [3]	BBB influx classification (blood-brain barrier)	half-life in human plasma [4] [h]	Tissue distribution (in words) [5]	clearance as % of the plasma flow to the brain [6]
SYPGWSW [PhrCACET1]	54.90 ± 5.75	20.87 ± 7.97	20.87 µL/g/min	15.1	13.97	16.20	86.03	83.80	84.9	-0.02 ± 0.04	-0.02 ± 0.03	very high influx	–	–	–
GLWEDLLYNINRYAHYIT [BIP-2, bacteriocin-inducing peptide 2]	18.22 ± 1.43	2.68 ± 0.66	2.68 µL/g/min	23.1	23.14	23.04	76.86	76.96	76.9	-0.06 ± 0.02	-0.06 ± 0.02	low influx	5.345	strongly accumulated in the liver	–
dermorphin [reference compound]	23.05 ± 1.18	5.26 ± 0.93	5.26 μl/(gxmin)	37.0	–	–	–	–	63.0	-0.11 ± 0.02	–	low influx	–	mainly distributed in the duodenum, followed by the liver	about 0.05%
